# Source: patent publication US9809853B2, “Calcium-activated chloride channel involved in human sweat formation” (BRAIN Biotechnology Research and Information Network AG, priority 2012, dated 2017)
# Target: T1, TMEM16A(ac) (Homo sapiens, UniProt Q5XXA6, DEL476-501)
# T1 construct: expressed in transfected cells
# T1 sequence (Q5XXA6 with tags, fused parts or gaps DEL476-501): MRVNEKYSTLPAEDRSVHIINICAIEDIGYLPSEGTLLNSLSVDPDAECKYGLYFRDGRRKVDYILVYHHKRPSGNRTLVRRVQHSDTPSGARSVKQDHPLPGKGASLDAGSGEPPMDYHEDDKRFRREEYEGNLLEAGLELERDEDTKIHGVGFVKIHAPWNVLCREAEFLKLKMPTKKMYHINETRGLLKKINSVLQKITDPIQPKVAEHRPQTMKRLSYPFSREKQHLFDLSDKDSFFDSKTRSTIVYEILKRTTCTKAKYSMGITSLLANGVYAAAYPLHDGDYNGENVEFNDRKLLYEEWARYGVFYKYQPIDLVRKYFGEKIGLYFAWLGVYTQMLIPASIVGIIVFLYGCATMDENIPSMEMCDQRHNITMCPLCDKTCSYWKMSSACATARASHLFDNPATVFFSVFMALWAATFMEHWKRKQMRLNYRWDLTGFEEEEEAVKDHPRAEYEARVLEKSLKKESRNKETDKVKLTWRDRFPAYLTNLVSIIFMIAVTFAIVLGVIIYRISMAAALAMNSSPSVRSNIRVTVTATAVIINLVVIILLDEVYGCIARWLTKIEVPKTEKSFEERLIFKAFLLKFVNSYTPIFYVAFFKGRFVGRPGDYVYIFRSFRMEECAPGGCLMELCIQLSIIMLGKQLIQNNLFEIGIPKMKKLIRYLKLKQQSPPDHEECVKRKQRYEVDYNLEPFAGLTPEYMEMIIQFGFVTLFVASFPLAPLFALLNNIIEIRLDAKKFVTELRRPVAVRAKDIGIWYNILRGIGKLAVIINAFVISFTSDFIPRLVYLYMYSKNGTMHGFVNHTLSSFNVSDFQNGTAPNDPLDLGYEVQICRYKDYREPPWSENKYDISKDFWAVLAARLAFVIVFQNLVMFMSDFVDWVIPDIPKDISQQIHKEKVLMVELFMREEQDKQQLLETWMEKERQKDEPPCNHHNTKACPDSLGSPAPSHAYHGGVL
# Test: hsYFP quenching assay in NCL-SG3-hsYFP-TMEM16A(ac) cells
# Type: cell-based
# Conditions: 330 μM ATP; for Effect of pretreatment on hsYFP quenching / Ca^2+-dependent Cl^− secretion after ATP: cells overexpressing TMEM16A(ac)
# Description: NCL-SG3-hsYFP, NCL-SG 3-hsYFP-TMEM16A(ac) and NCL-SG3-hsYFP-TMEM16A(acΔe3) cells were untreated (basal activity) or stimulated with ATP (330 μM). Quenching of hsYFP fluorescence was determined. The rate of I^− influx (sec^−1) was calculated from the initial slope of measured hsYFP fluorescence (ΔYFP fluorescence/Δtime) and is a direct measure of CaCC activity. For better comparison fold changes compared to basal activity of parental cells are shown. […] All influx rate differences are higly statistically significant, except the basal influx rate of parental and TMEM16A(ac) overexpressing NCL-SG3-hsYFP cells (Student's t-test, two-tailed; *** p-value<0.0001).
# TMEM16A(ac) and TMEM16A(acΔe3) are present in human eccrine sweat glands and were therefore obtained by RT-PCR amplification using TRIzol® (Invitrogen) extracted RNA from freshly isolated human eccrine sweat glands using oligonucleotides (forward 5′-[…]; reverse 5′-[…]) SEQ ID NOS: 5 and 6 , which amplify full-length TMEM16A, and subsequently cloned into the proprietary eukaryotic gene expression plasmid (pEF1α-TMEM16A(ac) and pEF1α-TMEM16A(acΔe3), FIG. 6A). […] Both genes are coupled by an internal ribosomal entry site (IRES) to enable efficient translation of both open reading frames located on the same mRNA. […]
# Taken together, NCL-SG3-hsYFP cells can be used to monitor Ca^2+-dependent Cl^− fluxes, which represent the initial step in primary sweat formation in sweat gland cells. […] Microplates were transferred into an automated fluorescence plate reader (FlexStation®, Molecular Devices) and cellular hsYFP fluorescence was continuously recorded every 3.5 sec until end of the experiment (excitation at 485 nm, emission at 535 nm, cutoff 515 nm). […] NCL-SG3-hsYFP cells allow quantitative evaluation of in vivo Cl^− channel activity (FIGS. 9 and 10D). To determine the exact rate of Cl^− efflux/I^− influx the hsYFP fluorescence was plotted against time (ΔYFP fluorescence/Δtime). […]
compound,measurement,setting,value
Nc1ncnc2c1ncn2[C@@H]1O[C@H](COP(=O)(O)OP(=O)(O)OP(=O)(O)O)[C@@H](O)[C@H]1O [ATP],"ATP-induced activity (I^− influx rate, fold)",TMEM16A(ac) overexpressing cells,10 fold
"O=C(OC[C@H]1O[C@@H](OC(=O)c2cc(O)c(O)c(OC(=O)c3cc(O)c(O)c(O)c3)c2)[C@H](OC(=O)c2cc(O)c(O)c(OC(=O)c3cc(O)c(O)c(O)c3)c2)[C@@H](OC(=O)c2cc(O)c(O)c(OC(=O)c3cc(O)c(O)c(O)c3)c2)[C@@H]1OC(=O)c1cc(O)c(O)c(OC(=O)c2cc(O)c(O)c(O)c2)c1)c1cc(O)c(O)c(OC(=O)c2cc(O)c(O)c(O)c2)c1 [TA, tannic acid]",Effect of pretreatment on hsYFP quenching / Ca^2+-dependent Cl^− secretion after ATP,,significant reduction of hsYFP quenching
same,Effect of pretreatment on hsYFP quenching / Ca^2+-dependent Cl^− secretion after ATP,listed as tannic acid,inhibited
